Test results: patent US12612424B2, “HPK1 inhibitors and uses thereof” (Regor Pharmaceuticals, Inc., priority 2019, dated 2026)
Where two headings read alike, the source gives them in different places.

Tests used:
[1] = biological target: HPK1 (Homo sapiens, UniProt Q92918); assay: HPK1 biochemical assay (ADP-GLO Kinase Assay)
Text: IC50 values of any compounds can be determined accordingly over a range of inhibitor concentrations. In addition, the inhibitory effect of the compounds can also be assess using a biological assay, to determine the effect of the compounds on cytokine secretion by T cells following TCR and CD28 stimulation.
Biology Example 1 HPK1 Biochemical Assay
This example used the ADP-GLO™ Kinase Assay to measure the effect of potential HPK1 inhibitor compounds on HPK1 kinase activity.
The ADP-GLO™ Kinase Assay (Promega Corp., Madison, WI) measures ADP formed from a kinase reaction. According to the manufacture, the ADP formed in a kinase assay is first converted into ATP, which is then used to generate light in a luciferase reaction. The luminescence generated correlates with kinase activity. An exemplary experimental setting is described below, though minor adjustments can be made in individual assays.
Serial 3-fold dilution of compounds from 10 μM (top concentration) to 0.508 nM (lowest concentration). Positive control is 10 μM Reference+enzyme+substrate. Negative control is 1% DMSO+enzyme+substrate.
• 1. Buffer Preparation • 40 mM Tris pH7.5; 20 mM MgCl2, 0.1 mg/ml BSA, 50 μM DTT Buffer Stock
Add 20 mL 1M Tris and 10 mL 1M MgCl2 to 470 mL ddH2O to get buffer stock, and stock at RT. • 2. Preparing Fresh 1* Assay Buffer
• 3. Compounds Preparation • 1) The compounds were diluted to 1 mM, by mixing 10 μL of 10 mM respective compound stocks with 90 μL of DMSO. • 2) The compounds were then diluted 3-fold for 10 doses (5 μL to 10 μL dilution) by BRAVO. The top compound conc. was 1 mM (100×), DMSO Conc. was 100%. • 3) Transfer 100 nL of each diluted compound sample to 384-well plate (Corning-4512) by ECHO. • 4) Centrifuge the plate at 1,500 rpm for 1 minute. • 4. Preparation of 2×ATP-MBP Mixture: • 20 μM ATP, 0.2 μg/μL MBP in Kinase Buffer (final concentration: 10 μM ATP, 0.1 MBP)
• 5. Preparation of 2×HPK1 working solution with assay buffer. • HPK1 final concentration was 0.6 ng/μL. […] Incubate at 25° C. for 40 min. • 11. Record luminescence signal on an Envision plate reader (384-CTG). 5. Data Analysis
The percent (%) inhibition at each concentration of compound is calculated based on and relative to the signal in the High and Low control wells contained within each assay plate. […] The concentrations and % inhibition values for tested compounds were plotted and the concentration of compound required for 50% inhibition (IC50) was determined with a Three-parameter logistic dose response equation. The endpoint value (IC50) for the reference peptide/compound was evaluated in each experiment as a quality control measure. If the endpoint value was within 3-fold of the expected value, then the experiment was deemed acceptable.

[2] = biological target: T1, JAK3 (Homo sapiens, UniProt P52333); assay: JAK3 biochemical assay (ADP-GLO Kinase Assay); conditions: for JAKs/HPK1 IC50 Ratio, B*: first testing facility
T1 construct: purchased Thermo fisher PV3855
T1 sequence (P52333 781-1124 limits assumed): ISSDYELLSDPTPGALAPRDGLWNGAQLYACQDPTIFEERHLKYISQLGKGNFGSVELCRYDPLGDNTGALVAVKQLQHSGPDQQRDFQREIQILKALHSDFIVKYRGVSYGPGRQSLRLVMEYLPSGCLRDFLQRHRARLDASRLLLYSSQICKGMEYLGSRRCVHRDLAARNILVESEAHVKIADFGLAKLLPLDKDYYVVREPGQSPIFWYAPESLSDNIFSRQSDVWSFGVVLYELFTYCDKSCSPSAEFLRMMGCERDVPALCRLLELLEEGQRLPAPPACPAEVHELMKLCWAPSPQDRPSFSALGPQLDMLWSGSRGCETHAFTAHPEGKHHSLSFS
Experimental: Biology Example 4 JAK3 Biochemical Assay
This example used the ADP-GLO™ Kinase Assay to measure the effect of potential HPK1 inhibitor compounds on JAK3 kinase activity. An exemplary experimental setting is described below, though minor adjustments can be made in individual assays.
3. Procedures • 1. Prepare JAK3 kinase buffer • Freshly adding DTT and BSA into Buffer (Final Conc.: 40 mM Tris pH7.5; 20 mM MgCl2, 0.1 mg/ml BSA, 50 μM DTT).
• 2. Compounds Preparation • For tested compounds: compounds were diluted to 1 mM, by mixing 5 μL of 10 mM compound stocks to 45 μL DMSO. The compounds solutions were then serially diluted 3-fold for 10 doses. The top compound concentration was 1 mM (100×), DMSO concentration was 100%. • 50 nL of each of 10 doses of diluted compound were added to 384-well assay plate (Corning #4512) by ECHO. • For positive control, 50 nL of 1 mM reference compound were added to 384-well assay plate (Corning #4512) by ECHO. • For negative control: 50 nL of DMSO was transferred into 384-well assay plate as a negative control. • The assay plate was centrifuged at 1,500 rpm for 1 minute. • 3. Compounds were Transferred by ECHO Following the Layout Below: • Reference and test compounds 1-15: serial 3-fold dilution from 10 μM to 0.508 nM (10 doses); negative control is 0.78 ng JAK3, 4 μM ATP & 0.2 μg/μL poly, 1% DMSO; positive control is the top dose of the reference compound, 0.78 ng JAK3, 0.2 μg/μL Poly(E4Y1), 4 μMATP, 1% DMSO. • 4. Add 2.5 μL/well of 2×JAK3 working solution using pipette (Thermo, 30 μL multi-channel), Centrifuge at 1,500 rpm for 1 minute. • 5. Add 2.5 μL/well of 2×ATP-Poly(E4Y1) working mixture using pipette (Thermo, 30 μL multi-channel), Centrifuge at 1,500 rpm for 1 minute. • 6. Incubate the assay plate at 25° C. for 60 min. • 7. Add 5 μL/well ADP-GLO™ Reagent by BRAVO to stop the kinase reaction and deplete the unconsumed ATP after 1 hour. Centrifuge at 1,500 rpm for 1 minute. Incubate at 25° C. for 40 min. • 8. Add 10 uL of Kinase Detection Reagent by BRAVO to convert ADP to ATP. Centrifuge at 1,500 rpm for 1 minute. Incubate at 25° C. for 40 min. • 9. Record luminescence signal on an Envision plate reader (384-USL). • 10. Process data using XL-fit. Inhibition %=[1-(test well−Negative control)/(positive control−Negative control)]*100%. 5. Data Analysis
The percent (%) inhibition at each concentration of compound is calculated based on and relative to the signal in the Negative and Positive control wells contained within each assay plate. The Negative control wells served as 0% inhibition, and the Positive control wells served as 100% inhibition. The concentrations and % inhibition values for tested compounds are plotted and the concentration of compound required for 50% inhibition (IC50) is determined with a Three-parameter logistic dose response equation. The endpoint value (IC50) for the reference peptide/compound is evaluated in each experiment as a quality control measure. If the endpoint value was within 3-fold of the expected value then the experiment was deemed acceptable.

[3] = B*: testing performed in a first testing facility, read-out: HPK1 IC50 (nM) Relative, B*
[4] = B*: testing performed in a first testing facility, read-out: JAK3 IC50 (nM) Relative, B*
[5] = ratio of JAK3 IC50 to HPK1 IC50

HPK1, sequence (Q92918 whole entry): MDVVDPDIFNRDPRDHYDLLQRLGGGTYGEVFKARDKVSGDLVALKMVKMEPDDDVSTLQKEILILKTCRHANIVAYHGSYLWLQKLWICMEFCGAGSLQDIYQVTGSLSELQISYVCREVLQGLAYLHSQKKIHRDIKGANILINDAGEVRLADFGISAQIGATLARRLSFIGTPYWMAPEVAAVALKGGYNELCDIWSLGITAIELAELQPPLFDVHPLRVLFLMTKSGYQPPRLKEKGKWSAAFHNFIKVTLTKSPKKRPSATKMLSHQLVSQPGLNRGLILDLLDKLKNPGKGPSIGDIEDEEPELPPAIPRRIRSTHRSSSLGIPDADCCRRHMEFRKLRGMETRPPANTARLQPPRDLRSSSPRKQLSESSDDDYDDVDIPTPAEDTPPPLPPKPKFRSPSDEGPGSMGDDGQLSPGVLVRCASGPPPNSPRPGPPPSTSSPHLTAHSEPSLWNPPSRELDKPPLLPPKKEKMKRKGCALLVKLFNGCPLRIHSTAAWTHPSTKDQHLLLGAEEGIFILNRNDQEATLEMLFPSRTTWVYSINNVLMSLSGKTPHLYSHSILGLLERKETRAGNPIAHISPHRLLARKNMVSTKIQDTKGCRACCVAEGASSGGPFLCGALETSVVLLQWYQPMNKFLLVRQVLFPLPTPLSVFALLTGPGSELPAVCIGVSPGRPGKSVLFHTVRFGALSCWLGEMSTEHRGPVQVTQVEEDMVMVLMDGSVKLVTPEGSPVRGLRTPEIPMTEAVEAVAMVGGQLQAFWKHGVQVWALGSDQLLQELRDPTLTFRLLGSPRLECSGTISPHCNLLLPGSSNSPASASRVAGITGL

| Structure (SMILES) | IC50 [1, 3] [nM] | also measured |
| --- | --- | --- |
| COc1cc2c(cc1Nc1ncc(Cl)c(N3CC(C(=O)O)c4ccccc43)n1)CN(C)CC2 (single isomer, unassigned) [Example 95] | ≤ 100 | IC50 [2, 4]: > 1000 nM; JAKs/HPK1 IC50 Ratio, B* [2, 5]: 150 |
| COc1cc2c(cc1Nc1ncc(Cl)c(N3CCc4ccccc4C3)n1)CN(C)CC2 [Example 5, N-(5-chloro-4-(3,4-dihydroisoquinolin-2(1H)-yl)pyrimidin-2-yl)-6-methoxy-2-methyl-1,2,3,4-tetrahydroisoquinolin-7-amine] | 100 to 500 | – |
| COc1cc2c(cc1Nc1ncc(Cl)c(N3CCCc4ccccc43)n1)CN(C)CC2 [Example 6, N-(5-chloro-4-(3,4-dihydroquinolin-1(2H)-yl)pyrimidin-2-yl)-6-methoxy-2-methyl-1,2,3,4-tetrahydroisoquinolin-7-amine] | ≤ 100 | IC50 [2, 4]: > 1000 nM |
| COc1cc2c(cc1Nc1ncc(Cl)c(N3CCOc4ccccc43)n1)CN(C)CC2 [Example 7, N-(5-chloro-4-(2,3-dihydro-4H-benzo[b][1,4]oxazin-4-yl)pyrimidin-2-yl)-6-methoxy-2-methyl-1,2,3,4-tetrahydroisoquinolin-7-amine] | ≤ 100 | IC50 [2, 4]: > 1000 nM; JAKs/HPK1 IC50 Ratio, B* [2, 5]: >118 |
| COc1cc2c(cc1Nc1ncc(Cl)c(N3CCc4c(Cl)cccc43)n1)CN(C)CC2 [Example 12, N-(5-chloro-4-(4-chloroindolin-1-yl)pyrimidin-2-yl)-6-methoxy-2-methyl-1,2,3,4-tetrahydroisoquinolin-7-amine] | 100 to 500 | – |
| COc1cc2c(cc1Nc1ncc(Cl)c(N3CCc4cccnc43)n1)CN(C)CC2 [Example 17, N-(5-chloro-4-(2,3-dihydro-1H-pyrrolo[2,3-b]pyridin-1-yl)pyrimidin-2-yl)-6-methoxy-2-methyl-1,2,3,4-tetrahydroisoquinolin-7-amine] | 100 to 500 | – |
| COc1cc2c(cc1Nc1ncc(Cl)c(N3CCc4ccccc43)n1)CN(C(=O)CN(C)C)CC2 [Example 26] | ≤ 100 | – |
| COc1cc2c(cc1Nc1ncc(Cl)c(-n3c(C(=O)N(C)C)cc4ccccc43)n1)CN(C)CC2 [Example 28] | > 1000 | – |
| COc1cc2c(cc1Nc1ncc(Cl)c(N3CCn4c3cccc4=O)n1)CN(C)CC2 [Example 31] | 100 to 500 | IC50 [2, 4]: > 1000 nM; JAKs/HPK1 IC50 Ratio, B* [2, 5]: 31 |
| COc1cc2c(cc1Nc1ncc3ccn(-c4ccccc4C(=O)N(C)C)c3n1)CN(C)CC2 [Example 38] | 100 to 500 | IC50 ([1]; N*: testing performed in a second testing facility, read-out: HPK1 IC50 (nM) Relative, N*): ≤ 100 nM; IC50 ([2]; N*: testing performed in a second testing facility, read-out: JAK3 IC50 (nM) Relative, N*): > 1000 nM; JAKs/HPK1 IC50 Ratio, N* ([2]; ratio of JAK3 IC50 to HPK1 IC50, second testing facility): >163 |
| COc1cc2c(cc1Nc1ncc3ccn(-c4ccccc4P(C)(C)=O)c3n1)CN(C)CC2 [Example 39, (2-(2-((6-Methoxy-2-methyl-1,2,3,4-tetrahydroisoquinolin-7-yl)amino)-7H-pyrrolo[2,3-d]pyrimidin-7-yl)phenyl)dimethylphosphine oxide] | 500 to 1000 | IC50 [2, 4]: > 1000 nM; JAKs/HPK1 IC50 Ratio, B* [2, 5]: >18 |
| COc1cc2c(cc1Nc1ncc3ccn(-c4cccnc4)c3n1)CN(C)CC2 [Example 40, 6-Methoxy-2-methyl-N-(7-(pyridin-3-yl)-7H-pyrrolo[2,3-d]pyrimidin-2-yl)-1,2,3,4-tetrahydroisoquinolin-7-amine] | ≤ 100 | – |
| COc1cc2c(cc1Nc1ncc3ncn(-c4ccccc4P(C)(C)=O)c3n1)CN(C)CC2 [Example 45, (2-(2-((6-Methoxy-2-methyl-1,2,3,4-tetrahydroisoquinolin-7-yl)amino)-9H-purin-9-yl)phenyl)dimethylphosphine oxide] | > 1000 | – |
| COc1cc2c(cc1Nc1ncc3c(n1)N(c1ccccc1)CCO3)CN(C)CC2 [Example 46, N-(6-methoxy-2-methyl-1,2,3,4-tetrahydroisoquinolin-7-yl)-8-phenyl-7,8-dihydro-6H-pyrimido[5,4-b][1,4]oxazin-2-amine] | 100 to 500 | – |
| COc1cc2c(cc1Nc1ncc(Cl)c(-c3ccnc4ccccc34)n1)CN(C)CC2 [Example 49, N-(5-chloro-4-(quinolin-4-yl)pyrimidin-2-yl)-6-methoxy-2-methyl-1,2,3,4-tetrahydroisoquinolin-7-amine] | 100 to 500 | – |
| CCc1c[nH]c2ncc(-c3ccc(Cl)c(P(C)(C)=O)c3)cc12 [Example 52, (2-Chloro-5-(3-ethyl-1H-pyrrolo[2,3-b]pyridin-5-yl)phenyl)dimethylphosphine oxide] | ≤ 100 | – |
| CCc1c[nH]c2ncc(-c3cccc(P(C)(C)=O)c3)cc12 [Example 53, (3-(3-Ethyl-1H-pyrrolo[2,3-b]pyridin-5-yl)phenyl)dimethylphosphine oxide] | 100 to 500 | – |
| CCc1c[nH]c2ncc(-c3ccc(OC)c(P(C)(C)=O)c3)cc12 [Example 54, (5-(3-Ethyl-1H-pyrrolo[2,3-b]pyridin-5-yl)-2-methoxyphenyl)dimethylphosphine oxide] | 100 to 500 | – |
| CCc1c[nH]c2ncc(-c3cc(C)cc(P(C)(C)=O)c3)cc12 [Example 56, (3-(3-Ethyl-1H-pyrrolo[2,3-b]pyridin-5-yl)-5-methylphenyl)dimethylphosphine oxide] | 500 to 1000 | – |
| CCc1c[nH]c2ncc(-c3ccc(N4CCCC4)c(P(C)(C)=O)c3)cc12 [Example 59] | 100 to 500 | – |
| CCc1c[nH]c2ncc(-c3ccc(NC)c(P(C)(C)=O)c3)cc12 [Example 71, (5-(3-Ethyl-1H-pyrrolo[2,3-b]pyridin-5-yl)-2-(methylamino)phenyl)dimethylphosphine oxide] | 100 to 500 | – |
| COc1cc2c(cc1Nc1ncc3ccc(P(C)(C)=O)cc3n1)CN(C)CC2 [Example 172] | 100 to 500 | – |
